Test results: article PMC8777265, “The Environmental Pollutant Bromophenols Interfere With Sulfotransferase That Mediates Endocrine Hormones” (Frontiers in Endocrinology, 2022)

What was measured:
Assay type in all cases: biochemical
[1] = target: T1, SULT1A3 (Homo sapiens, UniProt P0DMM9); assay: PNP sulfation, UPLC-UV, […] inhibitor
T1 construct: recombinant human enzyme, commercial (BD Gentest)

[2] = target: T2, SULT1E1 (Homo sapiens, UniProt P49888); assay: PNP sulfation, UPLC-UV, […] inhibitor
T2 construct: recombinant human enzyme, commercial (BD Gentest)
T2 sequence (P49888 1-294): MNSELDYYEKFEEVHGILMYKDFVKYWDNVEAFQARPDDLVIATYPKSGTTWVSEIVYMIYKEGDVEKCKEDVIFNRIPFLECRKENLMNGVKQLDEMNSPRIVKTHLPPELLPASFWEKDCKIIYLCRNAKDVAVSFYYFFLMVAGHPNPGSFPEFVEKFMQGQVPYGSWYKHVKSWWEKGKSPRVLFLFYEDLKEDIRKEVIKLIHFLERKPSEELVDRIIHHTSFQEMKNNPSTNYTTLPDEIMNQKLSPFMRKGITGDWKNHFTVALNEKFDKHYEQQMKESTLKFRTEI

[3] = target: T1, SULT1A3; assay: PNP sulfation, UPLC-UV, Lineweaver-Burk with slope replot
[4] = target: T3, SULT1A1 (Homo sapiens, UniProt P50225); assay: PNP sulfation, UPLC-UV, […] inhibitor
T3 construct: recombinant human enzyme, commercial (BD Gentest)
T3 sequence (P50225 whole entry): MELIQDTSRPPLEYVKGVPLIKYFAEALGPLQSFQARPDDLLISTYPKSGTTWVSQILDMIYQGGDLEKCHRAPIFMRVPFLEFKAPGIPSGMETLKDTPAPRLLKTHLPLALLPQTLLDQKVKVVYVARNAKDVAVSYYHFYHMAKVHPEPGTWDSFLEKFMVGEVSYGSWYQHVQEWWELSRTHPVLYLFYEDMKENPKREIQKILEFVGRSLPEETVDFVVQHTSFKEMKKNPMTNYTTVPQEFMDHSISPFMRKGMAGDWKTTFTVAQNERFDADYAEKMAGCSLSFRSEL

[5] = target: T4, SULT1B1 (Homo sapiens, UniProt O43704); assay: PNP sulfation, UPLC-UV, […] inhibitor
T4 construct: recombinant human enzyme, commercial (BD Gentest)
T4 sequence (O43704 whole entry): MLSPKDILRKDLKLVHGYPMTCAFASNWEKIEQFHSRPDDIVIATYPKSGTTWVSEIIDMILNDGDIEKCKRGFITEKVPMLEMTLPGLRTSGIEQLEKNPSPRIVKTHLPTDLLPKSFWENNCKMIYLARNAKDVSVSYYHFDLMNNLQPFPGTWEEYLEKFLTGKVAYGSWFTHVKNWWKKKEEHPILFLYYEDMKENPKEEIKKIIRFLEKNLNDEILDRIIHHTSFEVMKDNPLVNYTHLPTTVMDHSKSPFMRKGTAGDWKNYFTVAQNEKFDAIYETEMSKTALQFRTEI

[6] = target: T4, SULT1B1; assay: PNP sulfation, UPLC-UV, single-concentration screen; details: 25 µM PNP, 40 µM PAPS, 5 mM MgCl2, 100 mM Tris-HCl pH 7.4, 37 °C
[7] = target: T3, SULT1A1; assay: as above; details: 40 µM PNP, 40 µM PAPS, 5 mM MgCl2, 100 mM Tris-HCl pH 7.4, 37 °C

T1 sequence (P0DMM9 whole entry): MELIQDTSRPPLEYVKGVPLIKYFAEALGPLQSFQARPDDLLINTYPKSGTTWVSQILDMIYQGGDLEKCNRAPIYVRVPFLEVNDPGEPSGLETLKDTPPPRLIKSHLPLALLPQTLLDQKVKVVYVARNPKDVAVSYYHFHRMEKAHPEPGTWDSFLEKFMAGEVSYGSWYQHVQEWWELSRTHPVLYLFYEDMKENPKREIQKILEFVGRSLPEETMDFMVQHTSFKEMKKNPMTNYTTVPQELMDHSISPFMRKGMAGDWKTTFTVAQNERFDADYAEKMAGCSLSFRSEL

Oc1c(Br)cc(Br)cc1Br [2,4,6-TBP]
IC50 [1]: 4.02 µM
IC50 [2]: 6.06 µM
Ki [3]: 16.3 µM
IC50 [4]: 1.02 µM
IC50 [5]: 1.06 µM

Oc1ccc(Br)cc1Br [2,4-DBP]
IC50 [1]: 25.5 µM
IC50 [2]: 3.24 µM
IC50 [4]: 1.03 µM
IC50 [5]: 4.22 µM

Oc1cc(Br)ccc1Br [2,5-DBP]
IC50 [1]: 12.9 µM
IC50 [4]: 1.24 µM
IC50 [5]: 5.42 µM

Oc1ccccc1Br [2-BP]
IC50 [1]: 8.88 µM
IC50 [2]: 25.9 µM
IC50 [4]: 1.03 µM
IC50 [5]: 1.07 µM

Oc1cccc(Br)c1 [3-BP]
% inhibition at 100 μM [6]: 3-BP and 4-BP only showed strong inhibition ability towards SULT1A1 and SULT1B1
% inhibition at 100 μM [7]: 3-BP and 4-BP only showed strong inhibition ability towards SULT1A1 and SULT1B1
